Article PMC6270001, “Synthesis and Antiviral Activity of N-Phenylbenzamide Derivatives, a Novel Class of Enterovirus 71 Inhibitors” (Molecules, 2013)

Assays:
[1] = system: EV 71 strains SZ-98, JS-52-3, H, BrCr; test: Anti EV 71 activity assay in Vero cells, summary over the four strains tested; assay type: cell-based, Enterovirus 71
Protocol: (§1) The EV 71 was divided into three genotypes A, B and C based on nucleotide sequence comparisons, and genotypes B and C were subdivided into B1-B5 and C1-C5 [6, 10]. Genotype C is the most common genotype found in mainland China, especially the C4 subgenotype. Consequently, the intermediate compounds 1a, 1c and 1e, and the final products 2a–c, 3a–g, and 5a–f were evaluated for their anti-EV 71 activity in Vero cells against genotypes C4 (strains SZ-98 and JS-52-3), C2 (strain H) and A (strain BrCr). […] The IC50 values were calculated by the Reed and Muench method, and the cytotoxicity was monitored by the CPE method.
(§2) Vero cells were purchased from the American Type Culture Collection and cultured in Minimum Essential Medium (MEM) supplemented with 10% Fetal Bovine Serum (FBS) and antibiotics (100 U/mL penicillin G, 100 μg/mL streptomycin). Enterovirus 71 (EV 71) strain SZ-98 was kindly provided by Dr. Qi Jin, Institute of Pathogen Biology, Chinese Academy of Medical Science and Peking Union Medical School. Enterovirus 71 (EV 71) strain BrCr (VR-1775) was purchased from the American Type Culture Collection. Enterovirus 71 (EV 71) strain JS-52-3 was kindly provided by Dr. Xiang-zhong Ye, Beijing Wantai Biological Pharmacy Enterprise Co., Ltd. All Enterovirus 71 strains were propagated in Vero cells.
(§3) All compounds were dissolved in DMSO at 20 mg/mL as a stock solution and further diluted in culture medium prior to use. The initial concentration in all cytotoxicity assay was 200 µg/mL, and inhibition assay for anti-EV71 experiments was from maximum non-toxic concentration, and proceeded serially 3-fold dilution with culture medium. All cytotoxicity and activity assay for each compound was repeated for three times, and the data was indicated as average ± SD.
(§4) Confluent Vero cells grown in 96-well microplates were infected respectively with 100 median tissue culture infective dose (TCID50) EV 71. After 1 h adsorption at 37 °C, the monolayers were washed by PBS and incubated at 37 °C in the maintenance medium with or without different concentrations of test compounds.

[2] = system: EV 71 strain BrCr (genotype A); test: Anti EV 71 activity assay (CPE, Reed & Muench) in Vero cells, strain BrCr; assay type: cell-based, Enterovirus 71; conditions: for IC50: EV 71 strain BrCr, Vero cells, 100 TCID50, CPE, average ± SD, n=3; for SI BrCr: selectivity index TC50/IC50, strain BrCr, "-" stands for no antiviral selectivity
Protocol: as §1, §2, §3, §4

[3] = system: EV 71 strain H (genotype C2); test: Anti EV 71 activity assay (CPE, Reed & Muench) in Vero cells, strain H; assay type: cell-based, Enterovirus 71; conditions: for IC50: Enterovirus A, Vero, EV 71 strain H (C2 genotype), Vero cells, 100 TCID50, CPE, average ± SD, n=3; for SI H: selectivity index TC50/IC50, strain H, "-" stands for no antiviral selectivity
Protocol: as §1, §2, §3, §4

[4] = system: EV 71 strain JS-52-3 (genotype C4); test: Anti EV 71 activity assay (CPE, Reed & Muench) in Vero cells, strain JS-52-3; assay type: cell-based, Enterovirus 71; conditions: for IC50: Enterovirus A, Vero, EV 71 strain JS-52-3, Vero cells, 100 TCID50, CPE, average ± SD, n=3; for SI JS-52-3: selectivity index TC50/IC50, strain JS-52-3, "-" stands for no antiviral selectivity
Protocol: as §1, §2, §3, §4

[5] = system: EV 71 strain SZ-98 (genotype C4); test: Anti EV 71 activity assay (CPE, Reed & Muench) in Vero cells, strain SZ-98; assay type: cell-based, Enterovirus 71; conditions: Enterovirus A, Vero, EV 71 strain SZ-98, Vero cells, 100 TCID50, CPE; average ± SD, n=3
Protocol: as §1, §2, §3, §4

Vero cells = test: Cytotoxicity determination in Vero cells monitored by cytopathic effect (CPE); assay type: cell-based; conditions: 48 h, Reed & Muench, concentration that inhibits 50% cellular growth, average ± SD, n=3
Protocol: as §2, with “Enterovirus 71 (EV 71) strain BrCr (VR-1775) was purchased from the American Type Culture Collection.” left out
as §3
The cytotoxicity of compounds in the presence of Vero cells was monitored by cytopathic effect (CPE). Vero cells (2.5 × 10^4/well) were plated into a 96-well plate. A total of 24 h later, the monolayer cells were incubated in the presence of various concentrations of test compounds. […] The median toxic concentration (TC50) was calculated by Reed & Muench analyses.

16 enteroviruses = conditions: cited from earlier work

| IC50 ([2]; Enterovirus A, Vero) [µM] | IC50 [3] [µM] | IC50 [4] [µM] | melting point [°C] | IC50 [5] [µM] | IC50 [2] [µM] | Structure (SMILES) | anti-EV 71 activity (in words) ([1]; structure-activity discussion) | SI BrCr [2] | SI H [3] | SI JS-52-3 [4] | TC50 (Vero cells) [µM] | selectivity index (SI) values (range over strains) ([1]; TC50/IC50, range over the EV 71 strains tested) | concentration effective against 80% of 16 enteroviruses tested (16 enteroviruses) [µg/mL] |
| --- | --- | --- | --- | --- | --- | --- | --- | --- | --- | --- | --- | --- | --- |
| 360 ± 26 | 430 ± 36 | 210 | 192 to 194 | > 620 |  | COc1ccc(C(=O)NC2CCCCC2)cc1NC(=O)C(C)F (stereo not drawn) [Compound 2b, N-Cyclohexyl-3-(2-fluoropropanamido)-4-methoxybenzamide] | no anti-EV 71 activity was observed | >1.7 | >1.4 | >3.0 | >620 |  |  |
| ~15 | ~15 | 34 ± 2.5 | 164 to 167 | > 59 | 20 ± 3.1 | CCCNc1cc(C(=O)Nc2cc(OC)c(OC)c(OC)c2)ccc1OC [Compound 3g, 4-Methoxy-3-(propylamino)-N-(3,4,5-trimethoxyphenyl)benzamide] |  | 27 | 35 | 16 | 530 | 16–35 |  |

| Structure (SMILES) | IC50 ([2]; Enterovirus A, Vero) [µM] | IC50 [3] [µM] | IC50 [4] [µM] | melting point [°C] | IC50 [5] [µM] | IC50 [2] [µM] | anti-EV 71 activity (in words) ([1]; structure-activity discussion) | SI BrCr [2] | SI H [3] | SI JS-52-3 [4] | TC50 (Vero cells) [µM] | selectivity index (SI) values (range over strains) ([1]; TC50/IC50, range over the EV 71 strains tested) | concentration effective against 80% of 16 enteroviruses tested (16 enteroviruses) [µg/mL] |
| --- | --- | --- | --- | --- | --- | --- | --- | --- | --- | --- | --- | --- | --- |
| CCOC(=O)c1ccc(OCCC2CCN(c3ccc(C)nn3)CC2)cc1 [Pirodavir, pirodavir, reference compound] | 1 ± 0.2 | 0.6 ± 0.1 | 1 ± 0.2 |  | 1.2 ± 0.2 |  |  |  |  |  | 31 ± 2.2 |  | 1.3 |
